The text below walks through data of ChEMBL document CHEMBL1121951, “Synthesis and evaluation of N-(phenylalkyl)acetohydroxamic acids as potential substrates for N-arylhydroxamic acid N,O-acyltransferase” (1982).

The source made the active and inactive calls. The rule behind the calls is not given here.

The species entered for one experiment is Rattus norvegicus. As to the kind of experiment: Transacetylation rate in rat hepatic AHAT preparation. The experiment is classed as functional.
The species entered for experiment [1] is Cricetulus griseus. As to the kind of experiment: Effect of the compound on hamster hepatic N-arylhydroxamic acid N,O-acyltransferase activity.
Experiment [2] in a line: Effect for methylthio adduct formation at 2 mM concentration. Type of experiment: functional.
Experiment [3] is described as follows: AHAT-catalyzed transacetylation rate at 0.5-1.0 concentration; No effect. Type of experiment: functional.
Experiment [4] is described as follows: Effect for methylthio adduct formation at 1 mM concentration. Type of experiment: functional.
Experiment [5] is filed under the species Cricetulus griseus. Briefly: Effect of the compound on hamster hepatic N,O-acyltransferase (AHAT) activity. The experiment is classed as functional.
Experiment [6] deals with Cricetinae gen. sp. Briefly: Transacetylation rate in hamster hepatic AHAT preparation. The experiment is classed as functional, Cricetulus griseus.
In experiment [7] the test system is Cricetinae gen. sp. Briefly: Effect for methylthio adduct formation in presence of 0.1 mM N-hydroxy-4-aminobiphenyl and 10 mM N-acetylmethioninein hamster hepatic AHAT preparation at 30 min. Type of experiment: functional, Cricetulus griseus.
A short description of experiment [8]: AHAT-catalyzed transacetylation rate at 0.5-1.0 concentration. Type of experiment: functional.
Experiment [9] is described as follows: Compound inhibit the AHAT-catalyzed transacetylation activity; Active. The experiment is classed as functional.

`CC(=O)N(O)CCCCc1ccccc1`: the values for the Activity in the experiment listed under Rattus norvegicus and in the experiment filed under Cricetulus griseus [1] were 0.73 nmol/mg/min and less than 1%, respectively.

For `CC(=O)N(O)C1CCC(c2ccccc2)CC1` (stereo unspecified), the values for the Reduction in experiment [2] and in experiment [4] were 23% and 13%, respectively. In the experiment listed under Cricetulus griseus [1], this molecule showed an Activity of less than 1%. The result in experiment [3] was inactive.

For the molecule `CC(=O)N(O)CCCc1ccccc1`, the Activity in the experiment filed under Cricetulus griseus [1] is less than 1%.

In turn, `CC(=O)N(O)CCc1ccccc1` yielded an Activity in the experiment filed under Cricetulus griseus [5] of less than 1%. The figures for the Reduction in [2] and in experiment [4] were 17% and 8%, respectively.

In turn, `CC(=O)N(O)Cc1ccccc1` came in with an Activity in the experiment listed under Cricetulus griseus [1] of less than 1%.

As for `CC(=O)N(O)c1ccc(-c2ccccc2)cc1`, the Activity in the experiment with Cricetinae gen. sp. [6] stood at 9.14 nM/min; in the experiment filed under Rattus norvegicus, 4.99 nM/min; in the experiment with Cricetinae gen. sp. [7] it was 120 nM; in [8], 10%. Besides, the outcome in [9] was Active.
